The text below walks through data of article PMC8571713 (Experimental neurology, 2021).

One assay has as its target T1, hSARM1 (human SARM1) (Homo sapiens, UniProt Q6SZW1).
T1 sequence (Q6SZW1 28-724): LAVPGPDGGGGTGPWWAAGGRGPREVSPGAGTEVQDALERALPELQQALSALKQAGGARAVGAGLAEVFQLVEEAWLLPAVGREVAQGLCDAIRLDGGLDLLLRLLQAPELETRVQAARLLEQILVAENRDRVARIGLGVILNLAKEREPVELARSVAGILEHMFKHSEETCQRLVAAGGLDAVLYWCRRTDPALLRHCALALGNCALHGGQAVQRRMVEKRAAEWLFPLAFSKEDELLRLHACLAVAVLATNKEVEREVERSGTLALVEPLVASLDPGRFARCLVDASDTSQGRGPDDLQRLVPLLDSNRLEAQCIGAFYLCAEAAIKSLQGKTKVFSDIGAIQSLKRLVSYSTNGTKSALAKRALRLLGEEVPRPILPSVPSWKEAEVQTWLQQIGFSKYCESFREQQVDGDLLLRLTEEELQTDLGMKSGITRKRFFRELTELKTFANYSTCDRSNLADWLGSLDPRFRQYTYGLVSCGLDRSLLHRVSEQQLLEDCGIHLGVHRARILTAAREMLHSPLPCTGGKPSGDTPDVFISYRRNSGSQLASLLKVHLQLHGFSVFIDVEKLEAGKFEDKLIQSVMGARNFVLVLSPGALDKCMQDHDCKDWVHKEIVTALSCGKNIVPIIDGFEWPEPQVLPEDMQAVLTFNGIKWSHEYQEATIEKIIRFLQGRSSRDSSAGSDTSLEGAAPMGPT
Nature of the assay: STD NMR with NMN competition. The class given is biochemical.

The target of assay [1] is T2, dSARM1 ARM (Drosophila SARM1 ARM domain) (Drosophila melanogaster, UniProt Q6IDD9).
T2 sequence (Q6IDD9 315-678): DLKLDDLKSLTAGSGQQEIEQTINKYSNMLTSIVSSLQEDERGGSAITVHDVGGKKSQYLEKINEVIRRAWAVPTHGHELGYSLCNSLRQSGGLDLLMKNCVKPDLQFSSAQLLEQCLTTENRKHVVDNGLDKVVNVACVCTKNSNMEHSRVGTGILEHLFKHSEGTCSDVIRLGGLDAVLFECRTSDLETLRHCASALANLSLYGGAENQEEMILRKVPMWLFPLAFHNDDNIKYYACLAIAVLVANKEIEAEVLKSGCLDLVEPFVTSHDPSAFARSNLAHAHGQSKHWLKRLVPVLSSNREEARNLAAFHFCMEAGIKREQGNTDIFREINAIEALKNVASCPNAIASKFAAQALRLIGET
The assay is described as follows: crystal structure. The class given is binding.

For the molecule `O=C([O-])c1ccc[n+]([C@@H]2O[C@H](COP(=O)(O)O)[C@@H](O)[C@H]2O)c1` [NaMN, nicotinic acid mononucleotide], the IC50 – broadly, the midpoint of a concentration-inhibition curve – on hSARM1 (human SARM1) was 93.3 µM. Besides, the “crystal structure (3.31 Å, soaking with 20 mM NaMN); STD NMR” value in assay [1] was “we determined the crystal structure of the NaMN-bound ARM domain of Drosophila SARM1 (dSARM1ARM) (PDB: 7RTC”.
